≈ marks a conversion by molar mass, not a printed value.
How the values were obtained:
Assay type in all cases: functional
[1] = tested on: Staphylococcus aureus; experiment: Antibacterial activity against methicillin resistant Staphylococcus aureus ATCC 43300 (MRSA)
[2] = tested on: Enterococcus faecalis; experiment: Antibacterial activity against Enterococcus faecalis ATCC 49452
[3] = tested on: Staphylococcus aureus; experiment: Antibacterial activity against methicillin susceptible Staphylococcus aureus ATCC 29213 (MSSA )
[4] = tested on: Enterococcus faecium; experiment: Antibacterial activity against Enterococcus faecium ATCC 6569
[5] = tested on: Mus musculus; experiment: Antibacterial activity was determined by protection from death of mice infected by methicillin resistant Staphylococcus aureus (MRSA) upon sc administration of compound after 4 hr of post infection; conditions: read-out: PD50

SMILES | MIC [1] | MIC [2] | MIC [3] | MIC [4] | ED50 [5]
CCCCCCCCCC(=O)N[C@@H](Cc1c[nH]c2ccccc12)C(=O)N[C@H](CC(N)=O)C(=O)N[C@@H](CC(=O)O)C(=O)N[C@@H]1C(=O)NCC(=O)N[C@@H](CCCNC(=O)C(C)CC(=O)c2ccccc2N)C(=O)N[C@@H](CC(=O)O)C(=O)N[C@H](C)C(=O)N[C@@H](CC(=O)O)C(=O)NCC(=O)N[C@H](CO)C(=O)N[C@@H]([C@H](C)CC(=O)O)C(=O)N[C@@H](CC(=O)c2ccccc2N)C(=O)O[C@@H]1C (some centres undefined) | 1.56 µg/mL (≈ 0.862 µM) | 12.5 µg/mL (≈ 6.91 µM) | 1.56 µg/mL (≈ 0.862 µM) | 6.25 µg/mL (≈ 3.45 µM) | –
CCCCCCCCCC(=O)N[C@@H](Cc1c[nH]c2ccccc12)C(=O)N[C@H](CC(N)=O)C(=O)N[C@@H](CC(=O)O)C(=O)N[C@@H]1C(=O)NCC(=O)N[C@@H](CCCNC(=O)CCc2c[nH]c3ccccc23)C(=O)N[C@@H](CC(=O)O)C(=O)N[C@H](C)C(=O)N[C@@H](CC(=O)O)C(=O)NCC(=O)N[C@H](CO)C(=O)N[C@@H]([C@H](C)CC(=O)O)C(=O)N[C@@H](CC(=O)c2ccccc2N)C(=O)O[C@@H]1C | 1.56 µg/mL (≈ 0.871 µM) | 25 µg/mL (≈ 14 µM) | 1.56 µg/mL (≈ 0.871 µM) | 12.5 µg/mL (≈ 6.98 µM) | –
CCCCCCCCCC(=O)N[C@@H](Cc1c[nH]c2ccccc12)C(=O)N[C@@H](CC(N)=O)C(=O)N[C@@H](CC(=O)O)C(=O)N[C@@H]1C(=O)NCC(=O)N[C@@H](CCCNC(=O)C(N)Cc2c[nH]c3ccccc23)C(=O)N[C@@H](CC(=O)O)C(=O)N[C@H](C)C(=O)N[C@@H](CC(=O)O)C(=O)NCC(=O)N[C@H](CO)C(=O)N[C@@H]([C@H](C)CC(=O)O)C(=O)N[C@@H](CC(=O)c2ccccc2N)C(=O)O[C@@H]1C (some centres undefined) | 1.56 µg/mL (≈ 0.863 µM) | 12.5 µg/mL (≈ 6.92 µM) | 1.56 µg/mL (≈ 0.863 µM) | 6.25 µg/mL (≈ 3.46 µM) | –
CCCCCCCCCC(=O)N[C@@H](Cc1c[nH]c2ccccc12)C(=O)N[C@@H](CC(N)=O)C(=O)N[C@@H](CC(=O)O)C(=O)N[C@@H]1C(=O)NCC(=O)N[C@@H](CCCNC(=O)C(N)Cc2c[nH]c3ccc(OC)cc23)C(=O)N[C@@H](CC(=O)O)C(=O)N[C@H](C)C(=O)N[C@@H](CC(=O)O)C(=O)NCC(=O)N[C@H](CO)C(=O)N[C@@H]([C@H](C)CC(=O)O)C(=O)N[C@@H](CC(=O)c2ccccc2N)C(=O)O[C@@H]1C (some centres undefined) | 1.56 µg/mL (≈ 0.849 µM) | 25 µg/mL (≈ 13.6 µM) | 1.56 µg/mL (≈ 0.849 µM) | 12.5 µg/mL (≈ 6.8 µM) | –
CCCCCCCCCC(=O)N[C@@H](Cc1c[nH]c2ccccc12)C(=O)N[C@H](CC(N)=O)C(=O)N[C@@H](CCO)C(=O)N[C@@H]1C(=O)NCC(=O)N[C@@H](CCCNC(=O)C(N)Cc2c[nH]c3ccc(F)cc23)C(=O)N[C@@H](CC(=O)O)C(=O)N[C@H](C)C(=O)N[C@@H](CC(=O)O)C(=O)NCC(=O)N[C@H](CO)C(=O)N[C@@H]([C@H](C)CC(=O)O)C(=O)N[C@@H](CC(=O)c2ccccc2N)C(=O)O[C@@H]1C (some centres undefined) | 1.56 µg/mL (≈ 0.861 µM) | 1.56 µg/mL (≈ 0.861 µM) | 1.56 µg/mL (≈ 0.861 µM) | 3.1 µg/mL (≈ 1.71 µM) | –
CCCCCCCCCC(=O)N[C@@H](Cc1c[nH]c2ccccc12)C(=O)N[C@H](CC(N)=O)C(=O)N[C@@H](CC(=O)O)C(=O)N[C@@H]1C(=O)NCC(=O)N[C@@H](CCCNC(=O)CC(C)(C)C(=O)O)C(=O)N[C@@H](CC(=O)O)C(=O)N[C@H](C)C(=O)N[C@@H](CC(=O)O)C(=O)NCC(=O)N[C@H](CO)C(=O)N[C@@H]([C@H](C)CC(=O)O)C(=O)N[C@@H](CC(=O)c2ccccc2N)C(=O)O[C@@H]1C | 12.5 µg/mL (≈ 7.15 µM) | 50 µg/mL (≈ 28.6 µM) | 12.5 µg/mL (≈ 7.15 µM) | 50 µg/mL (≈ 28.6 µM) | –
CCCCCCCCCC(=O)N[C@@H](Cc1c[nH]c2ccccc12)C(=O)N[C@H](CC(N)=O)C(=O)N[C@@H](CC(=O)O)C(=O)N[C@@H]1C(=O)NCC(=O)N[C@@H](CCCNC(=O)c2cccc(OC)c2N)C(=O)N[C@@H](CC(=O)O)C(=O)N[C@H](C)C(=O)N[C@@H](CC(=O)O)C(=O)NCC(=O)N[C@H](CO)C(=O)N[C@@H]([C@H](C)CC(=O)O)C(=O)N[C@@H](CC(=O)c2ccccc2N)C(=O)O[C@@H]1C | – | 10 µg/mL (≈ 5.65 µM) | 0.63 µg/mL (≈ 0.356 µM) | 10 µg/mL (≈ 5.65 µM) | –
CCCCCCCCCC(=O)N[C@@H](Cc1c[nH]c2ccccc12)C(=O)N[C@H](CC(N)=O)C(=O)N[C@@H](CC(=O)O)C(=O)N[C@@H]1C(=O)NCC(=O)N[C@@H](CCCNC(=O)c2cccc(C)c2N)C(=O)N[C@@H](CC(=O)O)C(=O)N[C@H](C)C(=O)N[C@@H](CC(=O)O)C(=O)NCC(=O)N[C@H](CO)C(=O)N[C@@H]([C@H](C)CC(=O)O)C(=O)N[C@@H](CC(=O)c2ccccc2N)C(=O)O[C@@H]1C | – | 10 µg/mL (≈ 5.7 µM) | 0.63 µg/mL (≈ 0.359 µM) | 10 µg/mL (≈ 5.7 µM) | –
CCCCCCCCCC(=O)N[C@@H](Cc1c[nH]c2ccccc12)C(=O)N[C@H](CC(N)=O)C(=O)N[C@@H](CC(=O)O)C(=O)N[C@@H]1C(=O)NCC(=O)N[C@@H](CCCNC(=O)c2cc(C(=O)O)ccc2N)C(=O)N[C@@H](CC(=O)O)C(=O)N[C@H](C)C(=O)N[C@@H](CC(=O)O)C(=O)NCC(=O)N[C@H](CO)C(=O)N[C@@H]([C@H](C)CC(=O)O)C(=O)N[C@@H](CC(=O)c2ccccc2N)C(=O)O[C@@H]1C | 3.1 µg/mL (≈ 1.74 µM) | 12.5 µg/mL (≈ 7.01 µM) | 1.25 µg/mL (≈ 0.701 µM) | 10 µg/mL (≈ 5.61 µM) | –
CCCCCCCCCC(=O)N[C@@H](Cc1c[nH]c2ccccc12)C(=O)N[C@H](CC(N)=O)C(=O)N[C@@H](CC(=O)O)C(=O)N[C@@H]1C(=O)NCC(=O)N[C@@H](CCCNC(=O)c2ccccc2I)C(=O)N[C@@H](CC(=O)O)C(=O)N[C@H](C)C(=O)N[C@@H](CC(=O)O)C(=O)NCC(=O)N[C@H](CO)C(=O)N[C@@H]([C@H](C)CC(=O)O)C(=O)N[C@@H](CC(=O)c2ccccc2N)C(=O)O[C@@H]1C | 1.56 µg/mL (≈ 0.843 µM) | 12.5 µg/mL (≈ 6.75 µM) | 1.56 µg/mL (≈ 0.843 µM) | 3.1 µg/mL (≈ 1.68 µM) | –
CCCCCCCCCC(=O)N[C@@H](Cc1c[nH]c2ccccc12)C(=O)N[C@H](CC(N)=O)C(=O)N[C@@H](CC(=O)O)C(=O)N[C@@H]1C(=O)NCC(=O)N[C@@H](CCCNC(=O)c2ccccc2SC)C(=O)N[C@@H](CC(=O)O)C(=O)N[C@H](C)C(=O)N[C@@H](CC(=O)O)C(=O)NCC(=O)N[C@H](CO)C(=O)N[C@@H]([C@H](C)CC(=O)O)C(=O)N[C@@H](CC(=O)c2ccccc2N)C(=O)O[C@@H]1C | 1.56 µg/mL (≈ 0.881 µM) | 25 µg/mL (≈ 14.1 µM) | 3.1 µg/mL (≈ 1.75 µM) | 6.25 µg/mL (≈ 3.53 µM) | –
CCCCCCCCCC(=O)N[C@@H](Cc1c[nH]c2ccccc12)C(=O)N[C@H](CC(N)=O)C(=O)N[C@@H](CC(=O)O)C(=O)N[C@@H]1C(=O)NCC(=O)N[C@@H](CCCNC(=O)c2ccccc2OC)C(=O)N[C@@H](CC(=O)O)C(=O)N[C@H](C)C(=O)N[C@@H](CC(=O)O)C(=O)NCC(=O)N[C@H](CO)C(=O)N[C@@H]([C@H](C)CC(=O)O)C(=O)N[C@@H](CC(=O)c2ccccc2N)C(=O)O[C@@H]1C | 3.1 µg/mL (≈ 1.77 µM) | 25 µg/mL (≈ 14.2 µM) | 1.25 µg/mL (≈ 0.712 µM) | 6.25 µg/mL (≈ 3.56 µM) | –
CCCCCCCCCC(=O)N[C@@H](Cc1c[nH]c2ccccc12)C(=O)N[C@H](CC(N)=O)C(=O)N[C@@H](CC(=O)O)C(=O)N[C@@H]1C(=O)NCC(=O)N[C@@H](CCCNC(=O)c2cc(O)ccc2N)C(=O)N[C@@H](CC(=O)O)C(=O)N[C@H](C)C(=O)N[C@@H](CC(=O)O)C(=O)NCC(=O)N[C@H](CO)C(=O)N[C@@H]([C@H](C)CC(=O)O)C(=O)N[C@@H](CC(=O)c2ccccc2N)C(=O)O[C@@H]1C | – | 10 µg/mL (≈ 5.7 µM) | 1.25 µg/mL (≈ 0.712 µM) | 10 µg/mL (≈ 5.7 µM) | –
CCCCCCCCCC(=O)N[C@@H](Cc1c[nH]c2ccccc12)C(=O)N[C@H](CC(N)=O)C(=O)N[C@@H](CC(=O)O)C(=O)N[C@@H]1C(=O)NCC(=O)N[C@@H](CCCNC(=O)c2cc(OC)ccc2N)C(=O)N[C@@H](CC(=O)O)C(=O)N[C@H](C)C(=O)N[C@@H](CC(=O)O)C(=O)NCC(=O)N[C@H](CO)C(=O)N[C@@H]([C@H](C)CC(=O)O)C(=O)N[C@@H](CC(=O)c2ccccc2N)C(=O)O[C@@H]1C | – | 10 µg/mL (≈ 5.65 µM) | 2.5 µg/mL (≈ 1.41 µM) | 10 µg/mL (≈ 5.65 µM) | –
CCCCCCCCCC(=O)N[C@@H](Cc1c[nH]c2ccccc12)C(=O)N[C@H](CC(N)=O)C(=O)N[C@@H](CC(=O)O)C(=O)N[C@@H]1C(=O)NCC(=O)N[C@@H](CCCNC(=O)[C@@H](N)CCCCN)C(=O)N[C@@H](CC(=O)O)C(=O)N[C@H](C)C(=O)N[C@@H](CC(=O)O)C(=O)NCC(=O)N[C@H](CO)C(=O)N[C@@H]([C@H](C)CC(=O)O)C(=O)N[C@@H](CC(=O)c2ccccc2N)C(=O)O[C@@H]1C | 0.78 µg/mL (≈ 0.446 µM) | 6.25 µg/mL (≈ 3.57 µM) | 1.56 µg/mL (≈ 0.892 µM) | – | 1.1 mg/kg
CCCCCCCCCC(=O)N[C@@H](Cc1c[nH]c2ccccc12)C(=O)N[C@H](CC(N)=O)C(=O)N[C@@H](CCO)C(=O)N[C@@H]1C(=O)NCC(=O)N[C@@H](CCCNC(=O)c2c(N)cccc2F)C(=O)N[C@@H](CC(=O)O)C(=O)N[C@H](C)C(=O)N[C@@H](CC(=O)O)C(=O)NCC(=O)N[C@H](CO)C(=O)N[C@@H]([C@H](C)CC(=O)O)C(=O)N[C@@H](CC(=O)c2ccccc2N)C(=O)O[C@@H]1C | 0.78 µg/mL (≈ 0.447 µM) | 3.1 µg/mL (≈ 1.78 µM) | 0.78 µg/mL (≈ 0.447 µM) | 3.1 µg/mL (≈ 1.78 µM) | –
CCCCCCCCCC(=O)N[C@@H](Cc1c[nH]c2ccccc12)C(=O)N[C@H](CC(N)=O)C(=O)N[C@@H](CCO)C(=O)N[C@@H]1C(=O)NCC(=O)N[C@@H](CCCNC(=O)c2ccccc2)C(=O)N[C@@H](CC(=O)O)C(=O)N[C@H](C)C(=O)N[C@@H](CC(=O)O)C(=O)NCC(=O)N[C@H](CO)C(=O)N[C@@H]([C@H](C)CC(=O)O)C(=O)N[C@@H](CC(=O)c2ccccc2N)C(=O)O[C@@H]1C | 12.5 µg/mL (≈ 7.31 µM) | 25 µg/mL (≈ 14.6 µM) | 6.25 µg/mL (≈ 3.65 µM) | 25 µg/mL (≈ 14.6 µM) | –

From ChEMBL document CHEMBL1136454, “Synthesis and biological activity of N-Acylated ornithine analogues of daptomycin” (Bioorg Med Chem Lett, 2003)
